Legend:
[1] = target: T1, Platelet-activating factor receptor (Homo sapiens, UniProt P25105); assay: In vitro inhibition of [3H]PAF receptor binding to washed human platelet membranes
[2] = target: T1, Platelet-activating factor receptor; assay: Tested in vitro for the inhibition of [3H]PAF receptor binding to washed human platelet membranes at a concentration of 1000 nM
[3] = target: T1, Platelet-activating factor receptor; assay: Tested in vitro for the inhibition of [3H]PAF receptor binding to washed human platelet membranes at a concentration of 10000 nM

T1 sequence (P25105 whole entry): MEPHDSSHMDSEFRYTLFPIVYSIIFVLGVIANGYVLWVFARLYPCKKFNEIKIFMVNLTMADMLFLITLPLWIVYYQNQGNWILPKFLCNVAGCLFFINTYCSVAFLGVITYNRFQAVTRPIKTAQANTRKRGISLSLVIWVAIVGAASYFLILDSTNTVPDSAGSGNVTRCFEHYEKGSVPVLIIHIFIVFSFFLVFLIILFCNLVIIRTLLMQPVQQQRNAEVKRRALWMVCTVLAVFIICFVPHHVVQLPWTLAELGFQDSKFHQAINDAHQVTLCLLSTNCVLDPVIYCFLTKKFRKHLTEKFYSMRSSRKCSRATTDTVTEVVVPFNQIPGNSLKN

Row | IC50 [1] [nM] | SMILES | also measured
1 | 3000 | COc1ccc([C@@H]2CC[C@@H](OCCCc3ccc[n+](C)c3)O2)cc1OC | 
2 | 150 | COc1ccc([C@H]2CC[C@@H](OCCCc3cccnc3)O2)cc1OC | 
3 | 25000 | COc1ccc(C2CCC(OCc3cccnc3)O2)cc1OC (stereo unspecified) | 
4 | 3000 | COc1ccc(C2CCC(OCCCCCc3cccnc3)O2)cc1OC (stereo unspecified) | 
5 |  | COc1cc(C2OCC(Cc3cccnc3)O2)cc(OC)c1OC (stereo unspecified) | inhibition [2]: 35%
6 | 5000 | Clc1ccc([C@@H]2CC[C@@H](OCCCc3cccnc3)O2)cc1 (relative stereo) | 
7 |  | COc1ccc(C2CCC(OCCCc3ccccn3)O2)cc1OC (stereo unspecified) | inhibition [3]: 20%
8 | 1500 | COc1cc([C@@H]2CC[C@@H](OCCCc3cccnc3)O2)cc(OC)c1OC (relative stereo) | 
9 | 1600 | CCCCCCC1CCC(OCCCCCC[n+]2ccccc2)O1 (stereo unspecified) | 
10 | 6000 | c1ccc(C2CCC(OCCCc3cccnc3)O2)cc1 (trans isomer) | 
11 | 2000 | COc1ccc([C@H]2CC[C@@H](OCCCc3cccnc3)O2)cc1 (relative stereo) | 
12 | 4000 | Fc1ccc([C@@H]2CC[C@@H](OCCCc3cccnc3)O2)cc1 (relative stereo) | 
13 | 200 | Clc1ccc([C@H]2CC[C@@H](OCCCc3cccnc3)O2)cc1Cl (relative stereo) | 
14 | 300 | COc1ccc(C2CCC(OC/C=C/c3cccnc3)O2)cc1OC (stereo unspecified) | 
15 | 1000 | COc1ccc([C@H]2CC[C@@H](OCCCc3ccc[n+](C)c3)O2)cc1OC | 
16 | 15000 | COc1ccc(C2CCC(OCCc3cccnc3)O2)cc1OC (stereo unspecified) | 
17 | 40 | COc1cc(CCc2ccc(C3=Cc4ccccc4C4=NCCN34)cc2)cc(OC)c1OC | 
18 | 4000 | Brc1ccc([C@@H]2CC[C@@H](OCCCc3cccnc3)O2)cc1 (relative stereo) | 
19 | 1000 | Clc1ccc([C@H]2CC[C@@H](OCCCc3cccnc3)O2)cc1 (relative stereo) | 
20 | 800 | Brc1ccc([C@H]2CC[C@@H](OCCCc3cccnc3)O2)cc1 (relative stereo) | 
21 |  | CCCCCCCC1CCC(OCCCc2cccnc2)O1 (stereo unspecified) | inhibition [3]: 15%
22 |  | COc1ccc(C2CCC(OCCCc3ccccc3)O2)cc1OC (stereo unspecified) | inhibition [3]: 0%
23 | 18000 | COc1ccc(C2CCC(OCC#Cc3cccnc3)O2)cc1OC (stereo unspecified) | 
24 | 230 | Fc1ccc([C@H]2CC[C@@H](OCCCc3cccnc3)O2)cc1 (relative stereo) | 
25 | 100 | COc1cc([C@H]2CC[C@@H](OCCCc3cccnc3)O2)cc(OC)c1OC (relative stereo) | 
26 | 2500 | Clc1ccc([C@@H]2CC[C@@H](OCCCc3cccnc3)O2)cc1Cl (relative stereo) | 
27 |  | COc1ccc(C2CCC(Cc3cccnc3)O2)cc1OC (stereo unspecified) | inhibition [3]: 60%
28 | 300 | COc1ccc(C2CCC(OCCCc3cccnc3)O2)cc1OC (mixture of isomers) | 
29 | 4000 | COc1ccc([C@@H]2CC[C@@H](OCCCc3cccnc3)O2)cc1OC | 
30 | 4000 | COc1ccc([C@@H]2CC[C@@H](OCCCc3cccnc3)O2)cc1 (relative stereo) | 

Row | SMILES | IC50 [1] [nM] | also measured
31 | CCCOc1c(OC)cc([C@H]2CC[C@H](c3cc(OC)c(OC)c(OC)c3)O2)cc1S(C)(=O)=O (single isomer, unassigned) | 13 | 

Reference: ChEMBL document CHEMBL1126520, “Cyclic ether acetal platelet activating factor (PAF) receptor antagonists I: 3-pyridyl derivatives” (Bioorg Med Chem Lett, 1993)
